Data published in ChEMBL document CHEMBL3352684, “Discovery of MK-3697: a selective orexin 2 receptor antagonist (2-SORA) for the treatment of insomnia” (Bioorg Med Chem Lett, 2014).
Converted amounts (≈) assume the structure as drawn.

Columns and labels:
[1] = Clearance in dog with cassette dosing; format: ADME, organism-based, Canis lupus familiaris; settings: in vivo
Orexin receptor type 2 [2] = molecular target: T1, Orexin receptor type 2 (Homo sapiens, UniProt O43614); test: Antagonist activity at human OX2R expressed in CHO cells assessed as inhibition of Ala-6,12-orexinA-induced effect after 5 mins by FLIPR assay; format: cell-based
T1 sequence (O43614 whole entry): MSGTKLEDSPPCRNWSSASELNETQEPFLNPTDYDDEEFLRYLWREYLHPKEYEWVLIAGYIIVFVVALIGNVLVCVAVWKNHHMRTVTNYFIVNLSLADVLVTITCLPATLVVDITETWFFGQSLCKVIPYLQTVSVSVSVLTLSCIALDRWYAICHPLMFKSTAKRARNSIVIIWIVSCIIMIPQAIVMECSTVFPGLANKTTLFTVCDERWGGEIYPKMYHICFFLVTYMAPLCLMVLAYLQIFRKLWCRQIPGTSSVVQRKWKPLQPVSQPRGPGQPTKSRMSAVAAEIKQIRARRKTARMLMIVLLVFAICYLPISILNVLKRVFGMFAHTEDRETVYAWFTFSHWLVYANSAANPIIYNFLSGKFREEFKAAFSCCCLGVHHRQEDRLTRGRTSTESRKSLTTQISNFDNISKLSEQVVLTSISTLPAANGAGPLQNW

CHO [3] = test: Selectivity ratio of Ki for human OX1R I408V mutant expressed in CHO cells to Ki for human OX2R expressed in CHO cells; format: cell-based
CHO [4] = test: Selectivity ratio of IC50 for human OX1R Ile408Val mutant expressed in CHO cells to IC50 for human OX2R expressed in CHO cells; format: cell-based
[5] = molecular target: T2, Orexin/Hypocretin receptor type 1 (Homo sapiens, UniProt O43613, I408V); test: Antagonist activity at human OX1R I408V mutant expressed in CHO cells assessed as inhibition of Ala-6,12-orexinA-induced effect after 5 mins by FLIPR assay; format: cell-based
T2 sequence (O43613 whole entry I408V): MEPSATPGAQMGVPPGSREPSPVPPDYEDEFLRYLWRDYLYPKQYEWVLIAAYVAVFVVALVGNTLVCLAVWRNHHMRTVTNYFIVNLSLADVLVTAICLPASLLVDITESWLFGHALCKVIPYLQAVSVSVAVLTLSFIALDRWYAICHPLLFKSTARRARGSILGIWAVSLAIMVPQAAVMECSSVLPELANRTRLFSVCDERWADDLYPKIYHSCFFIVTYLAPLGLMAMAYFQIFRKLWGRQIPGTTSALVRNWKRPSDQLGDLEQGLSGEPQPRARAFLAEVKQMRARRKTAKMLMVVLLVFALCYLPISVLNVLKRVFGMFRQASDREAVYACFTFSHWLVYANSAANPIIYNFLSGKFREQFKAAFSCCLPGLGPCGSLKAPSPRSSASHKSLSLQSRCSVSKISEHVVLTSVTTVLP

[6] = molecular target: T2, Orexin/Hypocretin receptor type 1; test: Displacement of N-cyclobutyl-5-methyl-N-(2-([3H]-1-methyl-1H-benzo[d]imidazol-2-ylthio)ethyl)-2-(2H-1,2,3-triazol-2-yl)benzamide from human OX1R I408V mutant expressed in CHO cells by topcount analysis; format: cell-based
Orexin receptor type 2 [7] = molecular target: T1, Orexin receptor type 2; test: Displacement of (S)-N-(2-(1H-pyrrol-1-yl)phenyl)-1-(2-([3H]-1-methyl-1H-benzo[d]imidazol-2-ylthio)acetyl)pyrrolidine-2-carboxamide from human OX2R expressed in CHO cells after 3 hrs by topcount analysis; format: cell-based
[8] = Solubility of the compound in buffer at pH 2; format: physicochemical
[9] = Solubility of the compound in buffer at pH 7; format: physicochemical
[10] = Drug degradation in buffer assessed as compound remaining at pH 2 after 24 hrs; format: physicochemical; settings: for remaining at 24 h: pH 2, read-out: Stability
CYP3A4 [11] = molecular target: T3, CYP3A4 (Homo sapiens, UniProt P08684); test: Ratio of Kinact to Ki for CYP3A4 (unknown origin); format: ADME
T3 sequence (P08684 whole entry): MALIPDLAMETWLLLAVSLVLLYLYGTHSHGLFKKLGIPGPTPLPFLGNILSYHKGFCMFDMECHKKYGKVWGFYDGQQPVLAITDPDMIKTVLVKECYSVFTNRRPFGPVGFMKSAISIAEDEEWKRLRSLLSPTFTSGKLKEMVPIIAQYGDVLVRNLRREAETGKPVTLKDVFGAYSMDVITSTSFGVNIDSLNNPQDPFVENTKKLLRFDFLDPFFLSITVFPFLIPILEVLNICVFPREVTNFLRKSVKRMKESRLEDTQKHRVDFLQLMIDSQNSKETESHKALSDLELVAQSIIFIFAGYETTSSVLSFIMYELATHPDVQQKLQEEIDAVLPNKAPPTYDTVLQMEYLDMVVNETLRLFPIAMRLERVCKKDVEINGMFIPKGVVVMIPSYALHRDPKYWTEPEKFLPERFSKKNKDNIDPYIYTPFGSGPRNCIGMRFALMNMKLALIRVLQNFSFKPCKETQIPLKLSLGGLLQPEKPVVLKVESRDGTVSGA

CYP3A4 [12] = molecular target: T3, CYP3A4; test: (§1) Time dependent inhibition of CYP3A4 (unknown origin); format: ADME; settings: human
Cytochrome P450 3A4 = Cytochrome P450 3A4 (Homo sapiens, UniProt P08684); test: as §1; format: ADME
Sequence of Cytochrome P450 3A4 (P08684 whole entry): as above

Compound | clearance [1] | IC50 (Orexin receptor type 2 [2]) | IC50 [5] | Ki [6] | Ki (Orexin receptor type 2 [7]) | solubility [8] | solubility [9] | remaining at 24 h [10] | kinact/KI (CYP3A4 [11]) | kinact (CYP3A4 [12]) | Ki (Cytochrome P450 3A4) | Stability ([10]; pH 2, 24 h) | Ratio Ki (CHO [3]) | Ratio IC50 (CHO [4])
COc1ccc(CNC(=O)c2nc(-c3cncc(C)c3)cnc2-c2ccccc2)nc1OC | 37 mL/min/kg | 31 nM | > 20000 nM | 8500 nM | – | – | – | – | – | – | – | – | 6070 | > 645
COc1ccc(CNC(=O)c2sc(-c3cncc(C)c3)nc2-c2cccc(F)c2)nc1OC | – | 1060 nM | > 10000 nM | 12000 nM | 140 nM | – | – | – | – | – | – | – | 86 | > 9
COc1ccc(CNC(=O)c2cc(-c3cncc(C)c3)ncc2N2CCCC2)nc1OC | – | 37 nM | 10000 nM | 14000 nM | 4.5 nM | – | – | – | – | – | – | – | 3110 | > 270
COc1ccc(CNC(=O)c2cc(-c3cncc(C)c3)nc3onc(-c4ccccc4)c23)nc1OC | – | 420 nM | > 10000 nM | 4100 nM | 9 nM | – | – | – | – | – | – | – | 456 | > 24
COc1ccc(CNC(=O)c2cc(-c3cncc(Cl)c3)cnc2-c2ccccn2)nc1OC [MK-1064] | – | – | – | – | – | – | – | – | 200 M⁻¹ s⁻¹ | 0.00183 s⁻¹ | 9500 nM | – | – | –
COc1ccc(CNC(=O)c2cc(-c3cncc(Cl)c3)cnc2-c2ccccc2)nc1OC | – | – | – | – | – | 16 µM (≈ 7.37 µg/mL) | 10 µM (≈ 4.61 µg/mL) | 100% | – | – | – | – | – | –
COc1ccc(CNC(=O)c2cc(-c3cncc(C)c3)ncc2N2CCC2)nc1OC | 19 mL/min/kg | 83 nM | 10000 nM | 18000 nM | 10 nM | – | – | – | – | – | – | – | 1800 | > 120
COc1ccc(CNC(=O)c2cc(-c3cncc(C)c3)ncc2N2CCOCC2)nc1OC | 15 mL/min/kg | 3500 nM | 10000 nM | 1500 nM | 75 nM | – | – | – | – | – | – | – | 20 | > 3
COc1ccc(CNC(=O)c2nc(-c3cncc(C)c3)ccc2-c2ccccc2)nc1OC | 28 mL/min/kg | – | – | 2400 nM | 43 nM | – | – | – | – | – | – | – | 56 | –

More lines, main results first:

clearance [1] | IC50 (Orexin receptor type 2 [2]) | IC50 [5] | Ki [6] | Ki (Orexin receptor type 2 [7]) | solubility [8] | solubility [9] | remaining at 24 h [10] | kinact/KI (CYP3A4 [11]) | kinact (CYP3A4 [12]) | Ki (Cytochrome P450 3A4) | Stability ([10]; pH 2, 24 h) | Compound | Ratio Ki (CHO [3]) | Ratio IC50 (CHO [4])
– | 167 nM | 10000 nM | 930 nM | 4.1 nM | – | – | – | – | – | – | – | COc1ccc(CNC(=O)c2cc(-c3cncc(C)c3)ncc2-c2cnn(C)c2)nc1OC | 227 | > 60
27 mL/min/kg | 13 nM | 2000 nM | 720 nM | 0.3 nM | 180 µM (≈ 79.3 µg/mL) | 61 µM (≈ 26.9 µg/mL) | 100% | – | – | – | – | COc1ccc(CNC(=O)c2cc(-c3cncc(C)c3)cnc2-c2ccccc2)nc1OC | 2400 | 154
24 mL/min/kg | 109 nM | 10000 nM | 31000 nM | 7.6 nM | – | – | – | – | – | – | – | COc1ccc(CNC(=O)c2cc(-c3cncc(C)c3)ncc2-c2cnccn2)nc1OC | 4080 | > 92
19 mL/min/kg | 57 nM | 10000 nM | 17000 nM | 5.2 nM | – | – | – | – | – | – | – | COc1ccc(CNC(=O)c2cc(-c3cncc(C)c3)ncc2-c2cncc(F)c2)nc1OC | 3270 | 192
47 mL/min/kg | 120 nM | > 10000 nM | 23000 nM | 11 nM | – | – | – | – | – | – | – | COc1ccc(CNC(=O)c2nc(-c3cncc(C)c3)ncc2-c2ccccc2)nc1OC | – | > 83
18 mL/min/kg | 16 nM | 1950 nM | 4000 nM | – | – | – | – | – | – | – | – | COc1ccc(CNC(=O)c2cc(-c3cncc(C)c3)ncc2-c2cccc(F)c2)nc1OC | 4440 | 122
– | 1450 nM | 15000 nM | 39000 nM | 193 nM | – | – | – | – | – | – | – | COc1ccc(CNC(=O)c2cc(-c3cncc(C)c3)ncc2-c2ccnnc2)nc1OC | 202 | > 10
– | 170 nM | > 10000 nM | 15000 nM | 11 nM | – | – | – | – | – | – | – | COc1ccc(CNC(=O)c2cc(-c3cncc(C)c3)nnc2-c2ccccc2)nc1OC | 1360 | > 59
51 mL/min/kg | 14 nM | 1540 nM | 1000 nM | 0.3 nM | – | – | – | – | – | – | – | COc1ccc(CNC(=O)c2cc(-c3cncc(C)c3)ccc2-c2ccccc2)nc1OC | 3330 | 110
17 mL/min/kg | 25 nM | 3000 nM | 8600 nM | 1.4 nM | – | – | – | – | – | – | – | COc1ccc(CNC(=O)c2cc(-c3cncc(C)c3)ncc2-c2ccccc2F)nc1OC | 6140 | 120
15 mL/min/kg | 21 nM | 2800 nM | 2700 nM | 0.5 nM | – | – | – | 217 M⁻¹ s⁻¹ | 0.000217 s⁻¹ | 5600 nM | Stable | COc1ccc(CNC(=O)c2cc(-c3cncc(C)c3)ncc2-c2ccccc2)nc1OC | 5400 | 133
– | 36 nM | 4650 nM | 7900 nM | 1.4 nM | – | – | – | – | – | – | – | COc1ccc(CNC(=O)c2cc(-c3cncc(C)c3)ncc2-c2ccccn2)nc1OC | 5640 | 129
